For one experiment, the system named is recombinant α4β2 nAChR. The settings on record: recombinant receptor, electrophysiology; ref Ondachi et al., 2016; cited from earlier work.
Experiment [1] has as its target T1, AcAChBP (Aplysia californica, UniProt Q8WSF8, A155V/A60V).
T1 construct: made in house; host or cells: Spodoptera frugiperda (Sf9) cells, baculovirus (Bac-to-Bac)
Briefly: Kd determination by biolayer interferometry (BLI) on immobilized AcAChBP. It counts as binding. To be noted: 25°C, values with standard errors. As for the experimental part: The K d values of compounds 1–6 were determined using an Octet RED system (Forté-Bio). AcAChBP (0.5 mg ml^−1 in buffer A) was immobilized on Ni^2+–NTA sensors for 600 s, followed by the removal of non-immobilized protein (600 s) and baseline stabilization (120 s). Association and dissociation measurements were obtained at 25°C for six concentrations of each compound (1.7–410 nM) diluted in buffer A plus 1% DMSO. BLI assays were conducted with a baseline measurement in buffer (60 s), an association measurement in the well containing the compound (120 s) and a dissociation measurement in buffer (120 s). Data processing and analysis were performed with Octet RED Data Analysis version 7.1 (Forté-Bio), where the background response of immobilized AcAChBP in buffer was subtracted.

For a further experiment, the target named is α4β2 nAChR. The settings on record: cited from earlier work.
For the next experiment, the system named is homomeric α7 nAChR. The settings on record: ref Ondachi et al., 2016, cited from earlier work; for agonist/antagonist effect on α7 nAChR: homomeric α7.
In experiment [2] the test system is nicotine-induced antinociception. To be noted: in vivo; ref Ondachi et al., 2016; cited from earlier work.
Experiment [3] has as its target T1, AcAChBP. On the set-up: method as in Hansen et al., 2005. The settings on record: read-out: AcAChBP, Kd; tryptophan fluorescence-quenching assay; ref Hansen et al., 2005; cited from earlier work.
Another experiment concerns recombinant α3β4 nAChR. The settings on record: recombinant receptor, electrophysiology; ref Ondachi et al., 2016; cited from earlier work.
The target in experiment [4] is T1, AcAChBP. To be noted: read-out: AcAChBP, Kd; isothermal titration calorimetry; ref Rucktooa et al., 2012; cited from earlier work.
Where [5] appears, read: [3H]-epibatidine competition assay, values with standard errors, ref Ondachi et al., 2016.

Several values for one entry are separate records, joined by “and”; a condition that tells them apart may be missing. Equal values may be shown once. Read-outs that look alike come from different tables or passages of the source.

T1 sequence (Q8WSF8 entry or part of it A60V/A155V): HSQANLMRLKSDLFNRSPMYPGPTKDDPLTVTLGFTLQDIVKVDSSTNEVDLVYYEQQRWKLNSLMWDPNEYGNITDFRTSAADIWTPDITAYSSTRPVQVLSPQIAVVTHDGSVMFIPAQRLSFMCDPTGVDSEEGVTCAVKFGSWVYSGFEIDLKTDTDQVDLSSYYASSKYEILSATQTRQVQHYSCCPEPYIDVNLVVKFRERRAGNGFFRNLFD

Turning to `NC(=O)c1ccc(-c2cc(C3CC4CCC3N4)cnc2F)cc1` (centres unmarked) [Compound 1], in the experiment on recombinant α4β2 nAChR, the “agonist activity on α4β2 nAChR” value is “mixed partial agonists”. Also, the affinity at AcAChBP [1], expressed as Kd, was 9.8 ± 0.03 nM. Besides, the Ki at α4β2 nAChR is 0.12 ± 0.02 nM. Further, the “agonist/antagonist effect on α7 nAChR” value in the experiment with homomeric α7 nAChR is “agonists”.

On to `NC(=O)c1ccnc(-c2cc(C3CC4CCC3N4)cnc2F)c1` (centres unmarked) [Compound 2], for which, on AcAChBP [1], the “AcAChBP, Kd” value is given as “lowest affinity” and the dissociation constant (Kd) is 60 ± 0.14 nM. Moreover, the Ki on α4β2 nAChR (setting [5]) is 0.28 ± 0.01 nM. Moreover, the “antagonism of the antinociceptive action of nicotine” value in experiment [2] is given as “a potency approaching that of varenicline”. Besides, the “agonist/antagonist effect on α7 nAChR” value with homomeric α7 nAChR is recorded as “only an antagonist”.

On to `NC(=O)c1ccc(-c2cc(C3CC4CCC3N4)cnc2F)nc1` (centres unmarked) [Compound 3], for which the “agonist activity on α4β2 nAChR” value in the experiment on recombinant α4β2 nAChR was “mixed partial agonists”. The compound also displayed a dissociation constant (Kd) on AcAChBP [1] of 29 ± 0.05 nM. Moreover, the inhibition constant (Ki) at α4β2 nAChR (setting [5]) was 0.94 ± 0.07 nM. Besides, in the experiment with homomeric α7 nAChR, the “agonist/antagonist effect on α7 nAChR” value is given as “agonists”.

Take `NC(=O)c1ccc(-c2cc(C3CC4CCC3N4)cnc2F)cn1` (centres unmarked) [Compound 4]: the Kd at AcAChBP [1] is 33 ± 0.08 nM. For the same compound, at α4β2 nAChR (setting [5]), the inhibition constant (Ki) is 0.07 ± 0.002 nM. The “subtype selectivity α4β2 over α7” value in the experiment on homomeric α7 nAChR is “selective for α4β2 over α7”.

On to `NC(=O)c1cncc(-c2cc(C3CC4CCC3N4)cnc2F)c1` (centres unmarked) [Compound 5], for which the Kd at AcAChBP [1] was ~30 nM and 30 nM. In addition, on α4β2 nAChR (setting [5]), the Ki was 0.28 ± 0.03 nM. The “subtype selectivity α4β2 over α7” value in the experiment with homomeric α7 nAChR is “selective for α4β2 over α7”.

Consider `NC(=O)c1cc(-c2cc(C3CC4CCC3N4)cnc2F)ccn1` (centres unmarked) [Compound 6], for which the affinity on AcAChBP [1], expressed as Kd, was 9.8 ± 0.01 nM. Also, on α4β2 nAChR (setting [5]), the inhibitory constant (Ki) is 0.67 ± 0.28 nM.

On to `Clc1ccc([C@H]2C[C@@H]3CC[C@H]2N3)cn1` [Epibatidine, (1R,2R,4S)-2-(6-chloro-3-pyridinyl)-7-azabicyclo[2.2.1]heptane], for which the Kd on AcAChBP [3] is 14 nM. For the same compound, in the experiment with recombinant α3β4 nAChR, the “agonist activity on α3β4 nAChR” value is recorded as “full agonist”. Also, the “agonist activity on α4β2 nAChR” value with recombinant α4β2 nAChR is recorded as “full agonist”.

Turning to `CN1CCC[C@H]1c1cccnc1` [Nicotine], at AcAChBP [4], the Kd is 835 nM.

In the case of `c1cnc2cc3c(cc2n1)[C@@H]1CNC[C@H]3C1` [Varenicline], the Kd at AcAChBP [4] is 342 nM.

The values above are taken from PMC8900824, “Interactions between 2′-fluoro-(carbamoylpyridinyl)deschloroepibatidine analogues and acetylcholine-binding protein inform on potent antagonist activity against nicotinic receptors” (Acta Crystallographica. Section D, Structural Biology, 2022).
